Measured values from US8524902B2, “[1,2,4]triazolo[4,3-f]pteridines useful as inhibitors of protein kinases” (Vertex Pharmaceuticals Incorporated, priority 2006, dated 2013).

Target: T1, Plk1 (Homo sapiens, UniProt P53350)
T1 construct: in the presence of 15 nM Plk1 (A20-K338)
Experiment: Plk1 inhibition assay (radioactive-phosphate incorporation)
Type: biochemical
Conditions: Ki(app) from [γ-33P]ATP incorporation, 25° C.
Description: Compounds of the present invention may be evaluated as inhibitors of human PLK kinase using the following assays.
Compounds were screened for their ability to inhibit Plk1 using a radioactive-phosphate incorporation assay. Assays were carried out in a mixture of 25 mM HEPES (pH 7.5), 10 mM MgCl2, and 1 mM DTT. Final substrate concentrations were 50 μM [γ-33P]ATP (136 mCi 33P ATP/mmol ATP, Amersham Pharmacia Biotech/Sigma Chemicals) and 10 μM peptide (SAM68 protein Δ332-443). Assays were carried out at 25° C. in the presence of 15 nM Plk1 (A20-K338). An assay stock buffer solution was prepared containing all of the reagents listed above, with the exception of ATP and the test compound of interest. 30 μL of the stock solution was placed in a 96 well plate followed by addition of 2 μL of DMSO stock containing serial dilutions of the test compound (typically starting from a final concentration of 10 μM with 2-fold serial dilutions) in duplicate (final DMSO concentration 5%). The plate was pre-incubated for 10 minutes at 25° C. and the reaction initiated by addition of 8 μL [γ33P]ATP (final concentration 50 μM).
(§1) The reaction was stopped after 60 minutes by the addition of 100 μL 0.14M phosphoric acid. A multiscreen phosphocellulose filter 96-well plate (Millipore, Cat no. MAPHN0B50) was pretreated with 100 μL 0.2M phosphoric acid prior to the addition of 125 μL of the stopped assay mixture. The plate was washed with 4×200 μL 0.2M phosphoric acid. After drying, 100 μL Optiphase ‘SuperMix’ liquid scintillation cocktail (Perkin Elmer) was added to the well prior to scintillation counting (1450 Microbeta Liquid Scintillation Counter, Wallac).
After removing mean background values for all of the data points, Ki(app) data were calculated from non-linear regression analysis of the initial rate data using the Prism software package (GraphPad Prism version 3.0cx for Macintosh, GraphPad Software, San Diego Calif., USA).
Compounds were screened for their ability to inhibit Plk1 using a radioactive-phosphate incorporation assay. Assays were carried out in a mixture of 25 mM HEPES (pH 7.5), 10 mM MgCl2, 0.1% BSA, and 2 mM DTT. Final substrate concentrations were 150 μM (350 μM for determining values of <1 nM) [γ-33P]ATP (115 mCi 33P ATP/mmol ATP, Amersham Pharmacia Biotech/Sigma Chemicals) and 300 μM (450 μM for determining values of <1 nM) peptide (KKKISDELMDATFADQEAK) SEQ. ID NO. 1. Assays were carried out at 25° C. in the presence of 4 nM (1 nM for determining values of <1 nM) Plk1. An assay stock buffer solution was prepared containing all of the reagents listed above, with the exception of ATP and the test compound of interest. 30 μL of the stock solution was placed in a 96 well plate followed by addition of 2 μL of DMSO stock containing serial dilutions of the test compound (typically starting from a final concentration of 10 μM with 2-fold serial dilutions) in duplicate (final DMSO concentration 5%). The plate was pre-incubated for 10 minutes at 25° C. and the reaction initiated by addition of 8 μl [γ-33P]ATP (final concentration 150 μM (350 μM for determining values of <1 nM))).
as §1, with “90” for “60”, “minutes (240 minutes for determining values of <1 nM)” for “minutes”

T1 sequence (P53350 20-338): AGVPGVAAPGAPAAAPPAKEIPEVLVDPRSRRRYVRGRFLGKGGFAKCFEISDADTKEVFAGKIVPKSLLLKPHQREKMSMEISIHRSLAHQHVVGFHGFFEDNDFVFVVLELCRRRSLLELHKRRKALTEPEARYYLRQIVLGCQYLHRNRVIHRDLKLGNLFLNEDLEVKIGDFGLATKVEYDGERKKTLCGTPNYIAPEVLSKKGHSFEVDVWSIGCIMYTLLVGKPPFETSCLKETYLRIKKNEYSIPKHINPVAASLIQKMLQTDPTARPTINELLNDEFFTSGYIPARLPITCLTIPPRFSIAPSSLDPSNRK

Ki, < 0.01 µM:
CC[C@@H]1c2nncn2-c2cnc(Nc3ccc(C(=O)NC)cc3OC)nc2N1C1CCCC1 [Compound I-1, 4-((R)-5-cyclopentyl-4-ethyl-4,5-dihydro-[1,2,4]triazolo[4,3-f]pteridin-7-ylamino)-3-methoxy-N-methylbenzamide]
CC[C@@H]1c2nncn2-c2cnc(Nc3ccc(C(=O)NC4CCN(C)CC4)cc3OC)nc2N1C1CCCC1 [Compound I-2, 4-((R)-5-cyclopentyl-4-ethyl-4,5-dihydro-[1,2,4]triazolo[4,3-f]pteridin-7-ylamino)-3-methoxy-N-(1-methylpiperidin-4-yl)benzamide]
CC[C@@H]1c2nncn2-c2cnc(Nc3ccc(C(=O)NC)cc3Cl)nc2N1C1CCCC1 [Compound I-4, 4-((R)-5-cyclopentyl-4-ethyl-4,5-dihydro-[1,2,4]triazolo[4,3]pteridin-7-ylamino)-3-chloro-N-methylbenzamide]
CC[C@@H]1c2nncn2-c2cnc(Nc3ccc(C(=O)N(C)C)cc3C)nc2N1C1CCCC1 [Compound I-5, 4-((R)-5-cyclopentyl-4-ethyl-4,5-dihydro-[1,2,4]triazolo[4,3]pteridin-7-ylamino)-N,N,3-trimethylbenzamide]
CC[C@@H]1c2nncn2-c2cnc(Nc3ccc(C(=O)NC)cc3C)nc2N1C1CCCC1 [Compound I-6, 4-((R)-5-cyclopentyl-4-ethyl-4,5-dihydro-[1,2,4]triazolo[4,3]pteridin-7-ylamino)-N,3-dimethylbenzamide]
CC[C@@H]1c2nccn2-c2cnc(Nc3ccc(C(=O)NC)cc3OC)nc2N1C1CCCC1 [Compound I-7, 4-((R)-5-cyclopentyl-6-ethyl-5,6-dihydroimidazo[1,2)pteridin-3-ylamino)-3-methoxy-N-methylbenzamide]
CC[C@@H]1c2nncn2-c2cnc(Nc3ccc(C(=O)NC4CC4)cc3OC)nc2N1C1CCCC1 [Compound I-8, (R)-4-(5-cyclopentyl-4-ethyl-4,5-dihydro-[1,2,4]triazolo[4,3-f]pteridin-7-ylamino)-N-cyclopropyl-3-methoxybenzamide]
CC[C@@H]1c2nncn2-c2cnc(Nc3ccc(C(=O)N[C@@H]4CCOC4)cc3OC)nc2N1C1CCCC1 [Compound I-9, 4-((R)-5-cyclopentyl-4-ethyl-4,5-dihydro-[1,2,4]triazolo[4,3-f]pteridin-7-ylamino)-3-methoxy-N—((R)-tetrahydrofuran-3-yl)benzamide]
CC[C@@H]1c2nncn2-c2cnc(Nc3ccc(C(=O)NC4CCCC4)cc3OC)nc2N1C1CCCC1 [Compound I-10, (R)—N-cyclopentyl-4-(5-cyclopentyl-4-ethyl-4,5-dihydro-[1,2,4]triazolo[4,3-f]pteridin-7-ylamino)-3-methoxybenzamide]
CC[C@@H]1c2nncn2-c2cnc(Nc3ccc(C(=O)NC4CC4)cc3)nc2N1C1CCCC1 [Compound I-11, (R)-4-(5-cyclopentyl-4-ethyl-4,5-dihydro-[1,2,4]triazolo[4,3-f]pteridin-7-ylamino)-N-cyclopropylbenzamide]
CC[C@@H]1c2nncn2-c2cnc(Nc3ccc(C(=O)N4CC[C@H](F)C4)cc3OC)nc2N1C1CCCC1 [Compound I-12, (4-((R)-5-cyclopentyl-4-ethyl-4,5-dihydro-[1,2,4]triazolo[4,3-f]pteridin-7-ylamino)-3-methoxyphenyl)((S)-3-fluoropyrrolidin-1-yl)methanone]
CC[C@@H]1c2nnc(C)n2-c2cnc(Nc3ccc(C(=O)NC4CC4)cc3OC)nc2N1C1CCCC1 [Compound I-13, (R)-4-(5-cyclopentyl-4-ethyl-1-methyl-4,5-dihydro-[1,2,4]triazolo[4,3-f]pteridin-7-ylamino)-N-cyclopropyl-3-methoxybenzamide]
CC[C@@H]1c2nncn2-c2cnc(Nc3ccc(C(=O)NC4CC4)cc3F)nc2N1C1CCCC1 [Compound I-14, (R)-4-(5-cyclopentyl-4-ethyl-4,5-dihydro-[1,2,4]triazolo[4,3-f]pteridin-7-ylamino)-N-cyclopropyl-3-fluorobenzamide]
CC[C@@H]1c2nncn2-c2cnc(Nc3ccc(C(=O)NC4CC4)s3)nc2N1C1CCCC1 [Compound I-15, (R)-5-(5-cyclopentyl-4-ethyl-4,5-dihydro-[1,2,4]triazolo[4,3-f]pteridin-7-ylamino)-N-cyclopropylthiophene-2-carboxamide]
CC[C@@H]1c2nncn2-c2cnc(Nc3ccc(C(=O)NC)cc3F)nc2N1C1CCCC1 [Compound I-16, (R)-4-(5-cyclopentyl-4-ethyl-4,5-dihydro-[1,2,4]triazolo[4,3-f]pteridin-7-ylamino)-3-fluoro-N-methylbenzamide]
CC[C@@H]1c2nncn2-c2cnc(Nc3ccc(C(=O)NC4CC(F)(F)C4)cc3OC)nc2N1C1CCCC1 [Compound I-17, (R)-4-(5-cyclopentyl-4-ethyl-4,5-dihydro-[1,2,4]triazolo[4,3-f]pteridin-7-ylamino)-N-(3,3-difluorocyclobutyl)-3-methoxybenzamide]
CCNC(=O)c1ccc(Nc2ncc3c(n2)N(C2CCCC2)[C@H](CC)c2nncn2-3)c(OC)c1 [Compound I-18, (R)-4-(5-cyclopentyl-4-ethyl-4,5-dihydro-[1,2,4]triazolo[4,3-f]pteridin-7-ylamino)-N-ethyl-3-methoxybenzamide]
CCNC(=O)c1ccc(Nc2ncc3c(n2)N(C2CCCC2)[C@H](CC)c2nncn2-3)c(F)c1 [Compound I-19, (R)-4-(5-cyclopentyl-4-ethyl-4,5-dihydro-[1,2,4]triazolo[4,3-f]pteridin-7-ylamino)-N-ethyl-3-fluorobenzamide]
CC[C@@H]1c2nncn2-c2cnc(Nc3ccc(C(F)(F)F)cc3F)nc2N1C1CCCC1 [Compound I-20, (R)-5-cyclopentyl-4-ethyl-N-(2-fluoro-4-(trifluoromethyl)phenyl)-4,5-dihydro-[1,2,4]triazolo[4,3-f]pteridin-7-amine]
CC[C@@H]1c2nncn2-c2cnc(Nc3ccc(C(=O)NC)cc3C(F)(F)F)nc2N1C1CCCC1 [Compound I-21, (R)-4-(5-cyclopentyl-4-ethyl-4,5-dihydro-[1,2,4]triazolo[4,3-f]pteridin-7-ylamino)-N-methyl-3-(trifluoromethyl)benzamide]
CC[C@@H]1c2nncn2-c2cnc(Nc3ccccc3)nc2N1C1CCCC1 [Compound I-22, (R)-5-cyclopentyl-4-ethyl-N-phenyl-4,5-dihydro-[1,2,4]triazolo[4,3-f]pteridin-7-amine]
CC[C@@H]1c2nncn2-c2cnc(Nc3ccncc3)nc2N1C1CCCC1 [Compound I-23, (R)-5-cyclopentyl-4-ethyl-N-(pyridin-4-yl)-4,5-dihydro-[1,2,4]triazolo[4,3-f]pteridin-7-amine]
CC[C@@H]1c2nncn2-c2cnc(Nc3ccc(C(=O)NC)cc3C(F)F)nc2N1C1CCCC1 [Compound I-24, (R)-4-(5-cyclopentyl-4-ethyl-4,5-dihydro-[1,2,4]triazolo[4,3-f]pteridin-7-ylamino)-3-(difluoromethyl)-N-methylbenzamide]
CC[C@@H]1c2nncn2-c2cnc(Nc3cccnc3)nc2N1C1CCCC1 [Compound I-25, (R)-5-cyclopentyl-4-ethyl-N-(pyridin-3-yl)-4,5-dihydro-[1,2,4]triazolo[4,3-f]pteridin-7-amine]
